In US20220169629A1, “PESTICIDALLY ACTIVE DIAZINE-AMIDE COMPOUNDS” (SYNGENTA CROP PROTECTION AG, priority 2019, published 2022):

How the values were obtained:
Format in all cases: in vivo
[1] = tested on: Chilo suppressalis (striped rice stemborer); experiment: Example B4: Chilo suppressalis (striped rice stemborer), artificial diet, L2 larvae; details: 144 h, application rate of 200 ppm, 6 days after infestation, L2 larvae on artificial diet, read-out: control in at least one of the three categories (mortality, anti-feeding or growth inhibition)
Method: Example B4: Chilo suppressalis (Striped rice stemborer)
24-well microtiter plates with artificial diet were treated with aqueous test solutions prepared from 10′000 ppm DMSO stock solutions by pipetting. After drying, the plates were infested with L2 larvae (6-8 per well). The samples were assessed for mortality, anti-feeding effect, and growth inhibition in comparison to untreated samples 6 days after infestation. Control of Chilo suppressalis by a test sample is given when at least one of the categories mortality, anti-feedant effect, and growth inhibition is higher than the untreated sample.

[2] = tested on: Plutella xylostella (diamond back moth); experiment: Example B5: Plutella xylostella (diamond back moth), artificial diet, 24-well, eggs; details: 192 h, application rate of 200 ppm, 8 days after infestation, read-out: control in at least one of the two categories (mortality or growth inhibition)
Method: Example B5: Plutella xylostella (Diamond Back Moth)
24-well microtiter plates with artificial diet were treated with aqueous test solutions prepared from 10′000 ppm DMSO stock solutions by pipetting. After drying, Plutella eggs were pipetted through a plastic stencil onto a gel blotting paper and the plate was closed with it. The samples were assessed for mortality and growth inhibition in comparison to untreated samples 8 days after infestation.

[3] = tested on: Euschistus heros (neotropical brown stink bug); experiment: Example B2: Euschistus heros (neotropical brown stink bug), sprayed soybean leaves, N2 nymphs; details: 120 h, application rate of 200 ppm, 5 days after infestation, N2 nymphs on soybean leaves, read-out: control in at least one of the two categories (mortality or growth inhibition)
Method: Example B2: Euschistus heros (Neotropical Brown Stink Bug)
Soybean leaves on agar in 24-well microtiter plates were sprayed with aqueous test solutions prepared from 10′000 ppm DMSO stock solutions. After drying the leaves were infested with N2 nymphs. The samples were assessed for mortality and growth inhibition in comparison to untreated samples 5 days after infestation.

[4] = tested on: Spodoptera littoralis (Egyptian cotton leaf worm); experiment: Example B7: Spodoptera littoralis (Egyptian cotton leaf worm), sprayed cotton leaf discs, L1 larvae; details: foliar, 72 h, application rate of 200 ppm, 3 days after infestation, L1 larvae on cotton leaf discs, read-out: control in at least one of the three categories (mortality, anti-feeding or growth inhibition)
Method: Example B7: Spodoptera littoralis (Egyptian Cotton Leaf Worm)
Cotton leaf discs were placed onto agar in 24-well microtiter plates and sprayed with aqueous test solutions prepared from 10′000 ppm DMSO stock solutions. After drying the leaf discs were infested with five L1 larvae. The samples were assessed for mortality, anti-feeding effect, and growth inhibition in comparison to untreated samples 3 days after infestation. Control of Spodoptera littoralis by a test sample is given when at least one of the categories mortality, anti-feedant effect, and growth inhibition is higher than the untreated sample.

[5] = tested on: Plutella xylostella (diamondback moth); experiment: Example B10: Plutella xylostella (diamondback moth), 96-well artificial diet; details: 216 h, application rate of 500 ppm, 9 days after infestation, eggs/L1 larvae
Method: Example B10: Plutella xylostella (Diamondback Moth)
96-well microtiter plates containing artificial diet were treated with aqueous test solutions, prepared from 10′000 ppm DMSO stock solutions, by a liquid handling robot. After drying, eggs (˜30 per well) were infested onto a netted lid which was suspended above the diet. The eggs hatch and L1 larvae move down to the diet. The samples were assessed for mortality 9 days after infestation.

[6] = tested on: Diabrotica balteata (corn root worm); experiment: Example B1: Diabrotica balteata (corn root worm), sprayed maize sprouts, L2 larvae; details: 96 h, application rate of 200 ppm, 4 days after infestation, L2 larvae on maize sprouts, read-out: control in at least one of the two categories (mortality or growth inhibition)
Method: Example B1: Diabrotica Balteata (Corn Root Worm)
Maize sprouts placed onto an agar layer in 24-well microtiter plates were treated with aqueous test solutions prepared from 10′000 ppm DMSO stock solutions by spraying. After drying, the plates were infested with L2 larvae (6 to 10 per well). The samples were assessed for mortality and growth inhibition in comparison to untreated samples 4 days after infestation.

CC(NC(=O)c1cc(OCC(F)(F)F)cc(C(F)(F)F)c1)c1nccnc1-c1ncc(OCC(F)(F)F)cn1 (centres unmarked) [Compound P5, 3-(2,2,2-trifluoroethoxy)-N-[1-[3-[5-(2,2,2-trifluoroethoxy)pyrimidin-2-yl]pyrazin-2-yl]ethyl]-5-(trifluoromethyl)benzamide]
≥ 80%: control at 200 ppm [1] | percent control (mortality or growth inhibition) at 200 ppm [2] | percent control (mortality or growth inhibition) at 200 ppm [3] | percent control (mortality, anti-feeding or growth inhibition) at 200 ppm [4]

CC(NC(=O)c1cc(SC(F)(F)F)cc(C(F)(F)F)c1)c1nccnc1-c1ncc(OCC(F)F)cn1 (centres unmarked) [Compound P29, N-[1-[3-[5-(2,2-difluoroethoxy)pyrimidin-2-yl]pyrazin-2-yl]ethyl]-3-(trifluoromethyl)-5-(trifluoromethylsulfanyl)benzamide]
≥ 80%: mortality at 500 ppm [5] | control at 200 ppm [1] | percent control (mortality or growth inhibition) at 200 ppm [2] | percent control (mortality or growth inhibition) at 200 ppm [6] | percent control (mortality, anti-feeding or growth inhibition) at 200 ppm [4]

CC(NC(=O)c1cc(OCC(F)F)cc(C(F)(F)F)c1)c1nccnc1-c1ncc(OCC(F)(F)F)cn1 (centres unmarked) [Compound P1, 3-(2,2-difluoroethoxy)-N-[1-[3-[5-(2,2,2-trifluoroethoxy)pyrimidin-2-yl]pyrazin-2-yl]ethyl]-5-(trifluoromethyl)benzamide]
≥ 80%: control at 200 ppm [1] | percent control (mortality or growth inhibition) at 200 ppm [2] | percent control (mortality or growth inhibition) at 200 ppm [3] | percent control (mortality, anti-feeding or growth inhibition) at 200 ppm [4]

CC(NC(=O)c1cc(Br)cc(C(F)(F)F)c1)c1nccnc1-c1ccc(OCC(F)F)cn1 (centres unmarked) [Compound P19, 3-bromo-N-[1-[3-[5-(2,2-difluoroethoxy)-2-pyridyl]pyrazin-2-yl]ethyl]-5-(trifluoromethyl)benzamide]
≥ 80%: mortality at 500 ppm [5] | control at 200 ppm [1] | percent control (mortality or growth inhibition) at 200 ppm [2] | percent control (mortality or growth inhibition) at 200 ppm [6] | percent control (mortality, anti-feeding or growth inhibition) at 200 ppm [4]

CC(NC(=O)c1cc(OCC(F)(F)F)cc(C(F)(F)F)c1)c1nccnc1-c1ccc(C#N)cn1 (centres unmarked) [Compound P25, N-[1-[3-(5-cyano-2-pyridyl)pyrazin-2-yl]ethyl]-3-(2,2,2-trifluoroethoxy)-5-(trifluoromethyl)benzamide]
≥ 80%: mortality at 500 ppm [5] | control at 200 ppm [1] | percent control (mortality or growth inhibition) at 200 ppm [2] | percent control (mortality or growth inhibition) at 200 ppm [6] | percent control (mortality, anti-feeding or growth inhibition) at 200 ppm [4]

CC(NC(=O)c1cc(OCC(F)(F)F)cc(C(F)(F)F)c1)c1nccnc1-c1ccc(OCC(F)F)cn1 (centres unmarked) [Compound P15, N-[1-[3-[5-(2,2-difluoroethoxy)-2-pyridyl]pyrazin-2-yl]ethyl]-3-(2,2,2-trifluoroethoxy)-5-(trifluoromethyl)benzamide]
≥ 80%: mortality at 500 ppm [5] | control at 200 ppm [1] | percent control (mortality or growth inhibition) at 200 ppm [2] | percent control (mortality or growth inhibition) at 200 ppm [6] | percent control (mortality, anti-feeding or growth inhibition) at 200 ppm [4]

CC(NC(=O)c1cc(OC(F)F)cc(C(F)(F)F)c1)c1nccnc1-c1ccc(OCC(F)F)cn1 (centres unmarked) [Compound P13, N-[1-[3-[5-(2,2-difluoroethoxy)-2-pyridyl]pyrazin-2-yl]ethyl]-3-(difluoromethoxy)-5-(trifluoromethyl)benzamide]
≥ 80%: mortality at 500 ppm [5] | control at 200 ppm [1] | percent control (mortality or growth inhibition) at 200 ppm [2] | percent control (mortality or growth inhibition) at 200 ppm [6] | percent control (mortality, anti-feeding or growth inhibition) at 200 ppm [4]

CC(NC(=O)c1cc(Cl)cc(C(F)(F)F)c1)c1nccnc1-c1ccc(OCC(F)(F)F)cn1 (centres unmarked) [Compound P21, 3-chloro-N-[1-[3-[5-(2,2,2-trifluoroethoxy)-2-pyridyl]pyrazin-2-yl]ethyl]-5-(trifluoromethyl)benzamide]
≥ 80%: mortality at 500 ppm [5] | control at 200 ppm [1] | percent control (mortality or growth inhibition) at 200 ppm [2] | percent control (mortality or growth inhibition) at 200 ppm [6] | percent control (mortality, anti-feeding or growth inhibition) at 200 ppm [4]
